The record followed here is US5281738A, “bis[4-(2,6-di-alkyl)phenol]silane derivatives as antiatherosclerotic agents” (Merrell Dow Pharmaceuticals Inc., priority 1992, dated 1994).

Each structure is given as a SMILES string.

In this experiment the test system is human LDL (LDL lipid peroxidation). The experiment can be described thus: Inhibition of LDL lipid peroxidation (cupric sulfate-induced, thiobarbituric acid assay). The note with it: 250 μg human LDL, compound preincubated 30 min at 42 °C, cupric sulfate 12.5 μM final, 37 °C, 2.5 hours, read-out: ID50 (concentration of test compound required to inhibit 50% of LDL lipid peroxidation). In kind it is biochemical. The method, then:
The degree of inhibition of LDL lipid peroxidation was determined by the method of Yagi et al. [Vitamins 39, 105 (1968)].
A 0.5 mL solution containing 250 micrograms (μg) of human LDL was incubated with the test compound, in amounts varying from 0 to 30 μg, for 30 minutes at 42° C. To this mixture was added 1 mL of a cupric sulfate solution (final concentration 12.5 μM) and the mixture was incubated at 37° C. for 2.5 hours. The amount of peroxidation of LDL lipid was determined by the thiobarbituric acid assay. The concentration of test compound required to inhibit 50% of LDL lipid peroxidation (ID50) was determined.

Take `CC(C)(C)c1cc(SC[Si](C)(C)CSc2cc(C(C)(C)C)c(O)c(C(C)(C)C)c2)cc(C(C)(C)C)c1O` [Compound A, 4,4'-[(Dimethylsilylene)bis(methylenethio)]-bis[2,6-di-t-butyl]phenol]: the IC50 was 9.5 µM.
